Source: patent publication US20160355465A1, “NOVEL MODIFIED CURCUMINS AND THEIR USES” (THE RESEARCH FOUNDATION OF STATE UNIVERSITY OF NEW YORK, priority 2011, published 2016)

What was measured:
skin wounds = experiment: histological and histomorphometric assessment of skin wounds; assay type: in vivo, rat; conditions: diabetic rats, topical 1% and systemic compared with topical 3%, 7 days
Protocol: (§1) The following five experimental groups (n=3 rats per group) were established: Non-diabetic control rats (NDC) treated by daily application of white petrolatum jelly (“vehicle”) for 7 days, diabetic rats (D group) treated daily with vehicle alone; diabetics treated by daily topical application of either a 1% (D+1%) or a 3% (D+3%) suspension of Compound 4 in the vehicle; and diabetics treated systemically by daily oral intubation of a 1 ml suspension of Compound 4 (in carboxymethylcellulose) at a dose of 30 mg/kg over the 7-day treatment protocol (D+30 mg/kg). At the end of this time period, the circular wounds were clinically assessed by measuring diameter of the wound in millimeters, blood samples were collected, the rats were sacrificed, and skin samples collected for histological/histochemical, and biochemical assessment as described below. • 1) On day 7 after inducing wound healing, the animals were anesthetized and blood samples collected for blood glucose (one Touch Ultra Glucometer; Johnson & Johnson, New Brunswick, N.J.) and Hemoglobin A1c (A1c Now+; Bayer Health Care, Sunnyvale, Calif.) measurements. • 2) Photographs were taken for clinical observations to assess wound closure. […]

MMP-3 = MMP-3 (Homo sapiens, UniProt P08254); experiment: fluorimetric assay of MMP activity; assay type: biochemical; conditions: synthetic fluorescent peptide substrate Mca-Lys-Pro-Leu-Gly-Leu-Dpa-Ala-Arg-NH2
[1] = blood glucose of the rats of the collagen experiment; assay type: in vivo, rat; conditions: diabetic rats
[2] = severity of hyperglycemia (blood glucose, HbA1c) in diabetic rats; assay type: in vivo, rat
Protocol: as §1

mosquito bites = mosquito bites on the arms of a human subject, topical; assay type: in vivo; conditions: Example 9
Excerpt: Mosquitoes are presented with and allowed to bite the left and right arms of a human subject.

Sequence of MMP-3 (P08254 100-477): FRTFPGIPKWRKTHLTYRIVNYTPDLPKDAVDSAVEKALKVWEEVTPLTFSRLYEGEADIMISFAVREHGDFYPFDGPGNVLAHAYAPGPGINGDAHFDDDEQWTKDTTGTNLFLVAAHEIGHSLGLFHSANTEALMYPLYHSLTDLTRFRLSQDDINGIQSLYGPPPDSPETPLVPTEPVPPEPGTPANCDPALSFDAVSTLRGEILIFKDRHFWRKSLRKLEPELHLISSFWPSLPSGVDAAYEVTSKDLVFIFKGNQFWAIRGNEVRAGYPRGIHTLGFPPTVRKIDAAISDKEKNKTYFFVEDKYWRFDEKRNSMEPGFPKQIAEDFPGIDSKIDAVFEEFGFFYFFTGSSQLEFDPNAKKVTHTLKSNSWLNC

With `O=C(/C=C/c1ccc(O)cc1)C(C(=O)/C=C/c1ccc(O)cc1)C(=O)Nc1ccccc1` [Compound 4, 1,7-Bis(4-hydroxyphenyl)-4-N-phenylaminocarbonylhepta-1E, 6E-dien-3,5-dione] the “histological healing of epithelium and connective tissue” value (skin wounds) was “more effective than treatment with topical 3% Compound 4”, the IC50 (MMP-3) was 2.9 ± 0.4 µM and the “Blood Glucose” value ([1]; 0.25% topical) was 538 mg/dL. For the same compound, the “Blood Glucose” value ([1]; 1% topical) was 545 mg/dL, the “effect on severity of hyperglycemia” value ([2]; oral 30 mg/kg daily, 21 days) was “did not affect the severity of hyperglycemia” and the “effect on severity of hyperglycemia (blood glucose, HbA1c)” value ([2]; topical 1% or 3% or oral 30 mg/kg, 7 days) was “none of the topical or systemic treatments with Compound 4 demonstrated any effect”. For the same compound, the “itching and healing of mosquito bites compared with Compound 2” value (mosquito bites) was “stop itching sooner and heal quicker”.
